Experimental data from patent publication US20250127168A1, “METHOD FOR PATHOGENS, MICROORGANISMS, AND PARASITES INACTIVATION” (New York Blood Center, Inc., priority 2018, published 2025).

Tests used:
[1] = Storage stability of formulated compounds; type: physicochemical
Description: The solutions of the free bases of the compound of Structure I are alkaline, and can absorb atmospheric carbon dioxide, which can compromise the stability of the solutions and accelerate their hydrolysis or other degradation. The free bases of the compounds of Structure I may be stabilized by addition of small amounts of basic compounds, for example of sodium hydroxide.
The compounds of Structure I can be converted to solid solutions by quick solidification by cooling of their solution in compounds which are solid at room temperature. For example, if compound VI is added, in amount of up to 3% to melted polyethylene glycol, and the resulted solution is cooled quickly, preferably in thin film, a solid solution of compound VI is formed. […] The stability of the solid solutions can be further enhanced by addition of traces of strong bases, as for example, of sodium hydroxide. The preferred solids for the preparing of solid solution of compounds of Structure I have melting points above 40° C. and below 120° C., are well soluble in aqueous media, are neutral in chemical character, and have no adverse effect on the sample to be treated by the process, or on its intended use.

[2] = test system: Bovine viral diarrhea virus (BVDV); assay: Viral inactivation in RS, endpoint dilution assay; type: cell-based; settings: 100 μM, RT
Description: (§1) The porcine parvovirus (PPV) was inactivated by using compound VI and compound X. Treatments were conducted in RS (pH 6.9) at RT with 100 μM using compound VI and compound X and 10% virus spike. Residual compounds were quenched by incubation with 10 mM Na2S2O3 for 2 hours at RT. Virus titers, expressed as Log10TCID50/mL, were determined using the standard endpoint dilution assay with permissive to PPV porcine testis cells. After the incubation of indicator cells for 6 days, infected wells were counted under microscope by visual inspection. To confirm the results, secondary infection using conditioned media from the first plate wells as samples was conducted.
Bovine viral diarrhea virus (BVDV) was inactivated by using compound VI and compound X. The protocol used for […] except the indicator cells, which were bovine turbinate cells.

S. epidermidis = assay: Bacterial inactivation in Ringer's solution, colony agar plate count; type: cell-based; settings: 100 μM, RT, 1 h treatment
Description: (§2) A panel of G+F and G-bacteria were inactivated in their respective growth medium using compound VI, compound X, and compound XIV. All cells were grown in corresponding media to middle log phase, collected by centrifugation, re-suspended in Ringer's solution (RS), and treated at RT with 100 μM of compound VI, compound X, and compound XIV, which were added to the suspension as 100× concentrate in RS. Controls received RS only. At the end of the incubation, unreacted compound VI, compound X, and compound XIV were neutralized with 10 mM sodium thiophosphate during incubation at RT for 30 min. The viable cells were enumerated using serial dilutions by standard colony agar plate count. Table 1 summarizes the typical results of 1 h treatment of E. coli, P. fluorescens, Y. enterocolitica, B. cereus, S. aureus, and S. epidermidis with compound VI, compound X, and compound XIV.

S. aureus = assay: as above; type: cell-based; settings: 100 μM, RT, 1 h treatment
Description: as §2

E. coli = assay: as above; type: cell-based; settings: 100 μM, RT, 1 h treatment
Description: as §2

P. fluorescens [3] = assay: as above; type: cell-based; settings: 100 μM, RT, 1 h treatment
Description: as §2

B. cereus [4] = assay: as above; type: cell-based; settings: 100 μM, RT, 1 h treatment
Description: as §2

Y. enterocolitica = assay: as above; type: cell-based; settings: 100 μM, RT, 1 h treatment
Description: as §2

P. fluorescens [5] = assay: Bacterial inactivation in WB, LB and RBCC, growth/no growth; type: cell-based; set-up: key: “+” Growth; “−” No growth; settings: 6 h at RT
Description: (§3) Two G− species, Y. enterocolitica and P. fluorescens, both psychrophiles, and two G+ bacteria, S. epidermids and B. cereus, all known blood contaminants, were used in this study. All blood samples were spiked with approximately 0.1% bacterial stock suspension prepared in RS and left for equilibration at RT for 30 min. Freshly grown overnight bacterial cultures were used for each spiking. Compound VI and compound X were added to spiked blood to final concentrations of 100, 250, and 500 μM. Control samples (Ctr) received solvent only. Incubation was carried out at RT for 6 h followed by the addition of an inactivator, 100x Na thiosulfate, and additional incubation at RT for 2 h. After the incubation and quenching, aliquots were taken for serial dilutions and plate drop-counting and the bacterial growth-promoting solution (containing tryptone, peptone, yeast extract and casamino acids) was added to the remaining volumes. The growth/no growth results were confirmed by streaking agar plates.

B. cereus [6] = assay: as above; type: cell-based; set-up: key: “+” Growth; “−” No growth; settings: 6 h at RT
Description: as §3

Cytochrome C = Cytochrome C (Equus caballus, UniProt P00004); assay: Reactivity with Cytochrome C (electrospray MS); type: biochemical; settings: 8 μM protein; 0.1, 1, 10 mM compound; pH 7.0, 40° C.; 1, 4 and 30 h
Cytochrome C, sequence (P00004 whole entry): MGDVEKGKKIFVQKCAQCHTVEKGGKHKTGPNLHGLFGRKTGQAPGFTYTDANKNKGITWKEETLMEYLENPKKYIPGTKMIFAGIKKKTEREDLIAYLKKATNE
Description: Using alkylating molecules to inactivate pathogens in blood product has potentially harmful side effect—their reaction with proteins may create neoantigens, i.e., they may become haptens. To assess the hapten potential of the compounds of Structure I, their ability to modify Cytochrome C was studied. Cytochrome C (MW of 12384 Da) was selected as a model protein because it contains a number of amino acids with nucleophilic side chains: 19 Lys, 2 Cys, 3 Asp, 9 Glu, 3 His, and 4 Tyr, which are potential targets for alkylation by the compounds of Structure I. Cytochrome C, 0.1 mg/mL (8 μM) solution in phosphate buffered saline was incubated with 0 (control), 0.1, 1, and 10 mM of compounds VI or X at pH 7.0 for 30 h at 40° C. Aliquots of the incubation mixtures were analyzed at 1, 4 and 30 h by electrospray mass spectrometry in the positive ionization mode with direct infusion into a LCQ Advantage mass spectrometer (Thermo-Finnigan, San Jose, CA) for the formation of covalent adducts of the protein with the test compounds.

porcine parvovirus (PPV) = assay: Viral inactivation in RS, endpoint dilution assay; type: cell-based; settings: 100 μM, RT
Description: as §1

## CN(CCCCN(C)CCCN1CC1)CCCN(C)CCCN1CC1 [Compound X]
[1]; glycerol solution, addition of 0.1% of sodium hydroxide
  long term storage stability: significantly stabilized
[2]; incubation 1 h
  BVDV titer: 3.88 Log10TCID50/mL
[2]; incubation 3 h
  BVDV titer: 2.94 Log10TCID50/mL
[2]; incubation 6 h
  BVDV titer: 0.84 Log10TCID50/mL
S. epidermidis
  Titer: 7.32 Log10CFU/mL
S. aureus
  Titer: 6.70 Log10CFU/mL
E. coli
  Titer: 3.98 Log10CFU/mL
P. fluorescens [3]
  Titer: ≤1.00 Log10CFU/mL
B. cereus [4]
  Titer: ≤1.00 Log10CFU/mL
Y. enterocolitica
  Titer: 4.85 Log10CFU/mL
P. fluorescens [5]; LB, 100 μM
  Growth / No growth: −
P. fluorescens [5]; LB, 250 μM
  Growth / No growth: −
P. fluorescens [5]; RBCC, 100 μM
  Growth / No growth: −
P. fluorescens [5]; RBCC, 250 μM
  Growth / No growth: −
P. fluorescens [5]; WB, 100 μM
  Growth / No growth: −
P. fluorescens [5]; WB, 250 μM
  Growth / No growth: −
B. cereus [6]; LB, 100 μM
  Growth / No growth: −
B. cereus [6]; LB, 250 μM
  Growth / No growth: −
B. cereus [6]; RBCC, 250 μM
  Growth / No growth: −
B. cereus [6]; WB, 100 μM
  Growth / No growth: −
B. cereus [6]; WB, 250 μM
  Growth / No growth: −
B. cereus [6]; WB, 500 μM
  Growth / No growth: −
Cytochrome C
  covalent adducts with cytochrome C: absence of covalent adducts
Porcine parvovirus (PPV); RS pH 6.9, incubation 1 h
  PPV titer: 3.09 Log10TCID50/mL
Porcine parvovirus (PPV); RS pH 6.9, incubation 3 h
  PPV titer: 2.72 Log10TCID50/mL
Porcine parvovirus (PPV); RS pH 6.9, incubation 6 h
  PPV titer: 0.78 Log10TCID50/mL

## CN(CCCCN(C)CCCN1CC1)CCCN1CC1 [Compound VI, N^1,N^4-bis(3-(aziridin-1-yl)propyl)-N^1,N^4-dimethylbutane-1,4-diamine]
[1]
  storage stability: significantly higher storage stability
[2]; incubation 1 h
  BVDV titer: 3.27 Log10TCID50/mL
[2]; incubation 3 h
  BVDV titer: 1.30 Log10TCID50/mL
[2]; incubation 6 h
  BVDV titer: below the limit of detection and BLD
S. epidermidis
  Titer: 8.11 Log10CFU/mL
S. aureus
  Titer: 7.08 Log10CFU/mL
E. coli
  Titer: 4.60 Log10CFU/mL
P. fluorescens [3]
  Titer: 2.78 Log10CFU/mL
B. cereus [4]
  Titer: 2.45 Log10CFU/mL
Y. enterocolitica
  Titer: 6.72 Log10CFU/mL
P. fluorescens [5]; LB, 100 μM
  Growth / No growth: −
P. fluorescens [5]; LB, 250 μM
  Growth / No growth: −
P. fluorescens [5]; LB, 500 μM
  Growth / No growth: −
P. fluorescens [5]; RBCC, 100 μM
  Growth / No growth: −
P. fluorescens [5]; RBCC, 250 μM
  Growth / No growth: −
P. fluorescens [5]; RBCC, 500 μM
  Growth / No growth: −
P. fluorescens [5]; WB, 100 μM
  Growth / No growth: −
P. fluorescens [5]; WB, 250 μM
  Growth / No growth: −
P. fluorescens [5]; WB, 500 μM
  Growth / No growth: −
B. cereus [6]; LB, 100 μM
  Growth / No growth: −
B. cereus [6]; LB, 250 μM
  Growth / No growth: −
B. cereus [6]; LB, 500 μM
  Growth / No growth: −
B. cereus [6]; RBCC, 100 μM
  Growth / No growth: +
B. cereus [6]; RBCC, 250 μM
  Growth / No growth: −
B. cereus [6]; RBCC, 500 μM
  Growth / No growth: −
B. cereus [6]; WB, 100 μM
  Growth / No growth: +
B. cereus [6]; WB, 250 μM
  Growth / No growth: −
B. cereus [6]; WB, 500 μM
  Growth / No growth: −
Cytochrome C
  covalent adducts with cytochrome C: absence of covalent adducts
Porcine parvovirus (PPV); RS pH 6.9, incubation 1 h
  PPV titer: 2.95 Log10TCID50/mL
Porcine parvovirus (PPV); RS pH 6.9, incubation 3 h
  PPV titer: 0.85 Log10TCID50/mL
Porcine parvovirus (PPV); RS pH 6.9, incubation 6 h
  PPV titer: below the limit of detection and BLD
